# Publication PMC10572743 (International Journal of Molecular Sciences, 2023)
# Where two headings read alike, the source gives them in different places. Marks after values point to notes of the source that are not given here.
# How the values were obtained:
# [1] = system: TNF-α production in PBMC stimulated with LPS; conditions: previous research; read-out: PMBC-LPS/TNFα; cited from earlier work
# [2] = system: TNF-α production in PBMC stimulated with LPS; assay: Inhibition of TNF-α production in PBMCs stimulated with LPS (ELISA); format: cell-based; conditions: Homo sapiens, average of 2 independent experiments (donors), LPS 1 ng/mL, 24 h, read-out: IC50/μM (av.) PMBC-LPS/TNF-α
# Method: PBMC isolation. Human peripheral blood mononuclear cells (PBMCs) were isolated from buffy coats obtained from healthy adult volunteers. The buffy coats were diluted with sterile PBS and layered over Lymphoprep (Axis-Shield Diagnostics, Dundee, UK). Tubes were centrifuged for 35 min at 400× g (RT; acceleration and break turned off). After centrifugation, the mononuclear ring was collected, transferred into a new 50 mL tube, and washed thrice with sterile PBS. The remaining erythrocytes were lysed with an isotonic solution of ammonium chloride (150 mM; Kemika, Zagreb, Croatia).
# Treatment and stimulation of human PBMCs. Immediately after isolation, 200,000 PBMCs were seeded per well of a 96-well plate. Compounds were dissolved in 100% dimethyl sulfoxide (DMSO, Sigma, Darmstadt, Germany), and serial dilutions in DMSO were prepared and added to cells, with starting concentration for test compounds 100 µM or 1 µM for reference dexamethasone. […] Plates were incubated for 24 h at 37 °C, 5% CO2, followed by the collection of supernatants for measurement of TNF-α and cell viability assessment.
# Enzyme-linked immunosorbent assay (ELISA) and cytotoxicity analysis. TNFα concentration in PBMC supernatants was measured using ELISA assay, using antibodies obtained from BD Pharmingen (San Diego, CA, USA) and recombinant human TNFα protein (standard) from R&D Systems (Minneapolis, MN, USA). Lumitrac 600 384-well plates (Greiner Bio-One, Kremsmünster, Austria) were coated overnight with 1 µg/mL of TNFα capture antibody diluted in phosphate-buffered saline (PBS, Thermo Fisher Scientific, Waltham, MA, USA), followed by a washing step and blocking with 5% sucrose in assay diluent (1% bovine serum albumin (BSA; Sigma, Darmstadt, Germany) in PBS) for 4 h at RT. After the blocking step, the plates were washed, and samples/standards were added to the plates. After overnight incubation at 4 °C, detection antibodies diluted in assay diluent to a final concentration of 250 ng/mL were added. Following incubation for 2 h at RT, plates were washed, and streptavidin-HRP (Thermo Fisher Scientific, Waltham, MA, USA) solution was added (final concentration 500 ng/mL, prepared in assay diluent). Plates were incubated for 20 min at RT in the dark and washed, followed by adding Luminol substrate (Sigma, Darmstadt, Germany). […] To evaluate cell viability, Cell Titer Glo reagent was used (Promega, Madison, WI, USA) according to the manufacturer’s instructions.
# (§1) Data analysis. For ELISA, the blank was subtracted from measured RLU values, and TNFα concentrations in samples were interpolated from the standard curve. QC parameters for each plate were calculated from raw data. […] For viability assessment, the average luminescence value was calculated from all trigger vehicle samples, and the percentage of vehicle value was calculated for all samples. The compound effect was considered cytotoxic if reduction from a vehicle was ≥20%, and these concentrations were excluded from further analysis. IC50 values of tested compounds were determined in GraphPad Prism 9 software using nonlinear regression curve fit (four parameters, with variable slope).
# BChE = BChE (Equus caballus, UniProt P81908); assay: biochemical; format: biochemical; conditions: for inhibition at 500 µM / inhibition at 250 µM / inhibition at 350 µM: read-out: BChE % Inhibition
# Sequence of BChE (P81908 whole entry): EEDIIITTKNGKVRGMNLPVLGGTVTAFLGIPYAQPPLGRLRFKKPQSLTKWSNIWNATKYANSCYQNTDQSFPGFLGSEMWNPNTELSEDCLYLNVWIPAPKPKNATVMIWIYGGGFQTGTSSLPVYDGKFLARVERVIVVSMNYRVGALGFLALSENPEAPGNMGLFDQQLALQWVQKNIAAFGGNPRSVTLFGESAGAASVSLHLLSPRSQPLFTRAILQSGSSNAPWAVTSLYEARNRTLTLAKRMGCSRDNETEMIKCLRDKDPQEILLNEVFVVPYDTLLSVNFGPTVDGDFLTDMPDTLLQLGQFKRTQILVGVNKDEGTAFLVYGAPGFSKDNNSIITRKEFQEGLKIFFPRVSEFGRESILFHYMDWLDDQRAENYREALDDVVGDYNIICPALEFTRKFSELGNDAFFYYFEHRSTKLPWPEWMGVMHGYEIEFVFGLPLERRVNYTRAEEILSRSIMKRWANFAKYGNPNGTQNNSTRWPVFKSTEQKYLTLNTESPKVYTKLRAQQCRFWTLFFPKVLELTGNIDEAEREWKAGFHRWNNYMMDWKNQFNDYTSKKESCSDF
# AChE = AChE (Electrophorus electricus, UniProt O42275); assay: biochemical; format: biochemical; conditions: for inhibition at 500 µM: at maximal concentration tested 500 μM; for inhibition at 250 µM: at maximal concentration tested 250 μM; for selectivity AChE over BChE: from IC50 values of Table 2; for inhibition: at maximal concentration tested 350 μM
# Sequence of AChE (O42275 24-633): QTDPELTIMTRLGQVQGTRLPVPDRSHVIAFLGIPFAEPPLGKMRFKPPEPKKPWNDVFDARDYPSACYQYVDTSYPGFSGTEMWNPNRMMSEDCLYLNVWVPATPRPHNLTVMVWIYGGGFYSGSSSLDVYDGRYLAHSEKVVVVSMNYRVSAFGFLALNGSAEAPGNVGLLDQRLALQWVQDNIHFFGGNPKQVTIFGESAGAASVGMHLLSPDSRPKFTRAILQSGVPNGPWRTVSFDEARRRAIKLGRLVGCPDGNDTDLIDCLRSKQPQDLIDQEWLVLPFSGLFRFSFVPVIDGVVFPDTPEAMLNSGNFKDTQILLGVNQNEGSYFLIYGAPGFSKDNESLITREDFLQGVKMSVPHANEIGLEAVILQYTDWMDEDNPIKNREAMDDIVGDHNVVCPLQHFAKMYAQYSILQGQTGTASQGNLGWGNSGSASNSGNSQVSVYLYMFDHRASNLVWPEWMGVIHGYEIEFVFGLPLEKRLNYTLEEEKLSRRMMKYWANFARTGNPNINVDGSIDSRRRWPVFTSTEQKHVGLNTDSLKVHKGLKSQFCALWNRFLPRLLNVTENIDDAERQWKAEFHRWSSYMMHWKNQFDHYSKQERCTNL
# PBMCs = assay: Cell viability of PBMCs after incubation with compounds (ATP, Cell Titer Glo); format: cell-based
# Method: The potential to act anti-inflammatory was evaluated for 1,2,3-triazole derivatives 1–31 in vitro in an assay where PBMCs from 2 healthy donors were stimulated with LPS to induce the immune response. As a measurement of response, the pro-inflammatory cytokine TNF-α was determined. […] […].
# Treatment and stimulation of human PBMCs. Immediately after isolation, 200,000 PBMCs were seeded per well of a 96-well plate. Compounds were dissolved in 100% dimethyl sulfoxide (DMSO, Sigma, Darmstadt, Germany), and serial dilutions in DMSO were prepared and added to cells, with starting concentration for test compounds 100 µM or 1 µM for reference dexamethasone. After pre-incubation for 1h with the compounds, lipopolysaccharide (LPS) from E. coli 0111:B4 (Sigma, Darmstadt, Germany) was added to cells at 1 ng/mL final concentration. Plates were incubated for 24 h at 37 °C, 5% CO2, followed by the collection of supernatants for measurement of TNF-α and cell viability assessment.
# Enzyme-linked immunosorbent assay (ELISA) and cytotoxicity analysis. TNFα concentration in PBMC supernatants was measured using ELISA assay, using antibodies obtained from BD Pharmingen (San Diego, CA, USA) and recombinant human TNFα protein (standard) from R&D Systems (Minneapolis, MN, USA). Lumitrac 600 384-well plates (Greiner Bio-One, Kremsmünster, Austria) were coated overnight with 1 µg/mL of TNFα capture antibody diluted in phosphate-buffered saline (PBS, Thermo Fisher Scientific, Waltham, MA, USA), followed by a washing step and blocking with 5% sucrose in assay diluent (1% bovine serum albumin (BSA; Sigma, Darmstadt, Germany) in PBS) for 4 h at RT. After the blocking step, the plates were washed, and samples/standards were added to the plates. […]. Following incubation for 2 h at RT, plates were washed, and streptavidin-HRP (Thermo Fisher Scientific, Waltham, MA, USA) solution was added (final concentration 500 ng/mL, prepared in assay diluent). Plates were incubated for 20 min at RT in the dark and washed, followed by adding Luminol substrate (Sigma, Darmstadt, Germany). Luminescence was measured using EnVision 2104 Multilabel Plate Reader (PerkinElmer, MA, USA), with an exposition time of 0.1 s. […]
# as §1, with “The compound effect was considered cytotoxic if reduction from a vehicle was ≥20%, and these concentrations were excluded from further analysis.” left out
# [3] = PBMC, ATP levels, highest tested concentration
structure (smiles),measurement,setting,value
C=CCn1nnc2ccc3sccc3c21 [A],IC50,[1],27.7 µM
"COc1ccc2ccc3nnn(C(C)C)c3c2c1 [Compound 1, 1-isopropyl-8-methoxy-1H-naphtho[1,2-d][1–3]triazole]",IC50,[2],8.1 µM
same,IC50,BChE,261 µM
same,inhibition at 500 µM,BChE,65.3 ± 0.7%
same,IC50,AChE,329 µM
same,inhibition at 500 µM,AChE,58.1 ± 1.6%
"C=CCCn1nnc2ccc3ccc(OC)cc3c21 [Compound 2, 1-(but-3-en-1-yl)-8-methoxy-1H-naphtho[1,2-d][1–3]triazole]",IC50,[2],10.4 µM
same,IC50,BChE,110 µM
same,inhibition at 500 µM,BChE,80.2 ± 0.7%
same,IC50,AChE,91.8 µM
same,inhibition at 500 µM,AChE,77.9 ± 3.6%
"C=CCCCn1nnc2ccc3ccc(OC)cc3c21 [Compound 3, 8-methoxy-1-(pent-4-en-1-yl)-1H-naphtho[1,2-d][1–3]triazole]",IC50,[2],12 µM
same,IC50,BChE,53.5 µM
same,inhibition at 250 µM,BChE,76.6 ± 1.8%
same,IC50,AChE,51.3 µM
same,inhibition at 250 µM,AChE,64.8 ± 5.3%
"COc1ccc2ccc3nnn(Cc4ccc(F)cc4)c3c2c1 [Compound 4, 1-(4-fluorobenzyl)-8-methoxy-1H-naphtho[1,2-d][1–3]triazole]",IC50,[2],19.1 µM
same,inhibition at 500 µM,BChE,25 ± 0.5%
same,inhibition at 500 µM,AChE,35.1 ± 2%
"COc1ccc2ccc3nnn(Cc4cccc(F)c4)c3c2c1 [Compound 5, 1-(3-fluorobenzyl)-8-methoxy-1H-naphtho[1,2-d][1–3]triazole]",IC50,[2],> 100 µM
same,inhibition at 250 µM,BChE,43.8 ± 1.8%
same,IC50,AChE,55.5 µM
same,inhibition at 250 µM,AChE,80.8 ± 1.8%
same,selectivity AChE over BChE,AChE,Selective inhibition toward AChE
"COc1cccc(Cn2nnc3ccc4ccc(OC)cc4c32)c1 [Compound 6, 8-methoxy-1-(3-methoxybenzyl)-1H-naphtho[1,2-d][1–3]triazole]",IC50,[2],1.9 µM
same,inhibition at 250 µM,BChE,47.8 ± 0.5%
same,IC50,AChE,177 µM
same,inhibition at 250 µM,AChE,78.6 ± 3.8%
same,selectivity AChE over BChE,AChE,Selective inhibition toward AChE
"COc1ccc2ccc3nnn(Cc4cccs4)c3c2c1 [Compound 7, 8-methoxy-1-(thiophen-2-ylmethyl)-1H-naphtho[1,2-d][1–3]triazole]",IC50,[2],> 100 µM
same,IC50,BChE,294 µM
same,inhibition at 500 µM,BChE,60.9 ± 0.4%
same,IC50,AChE,110 µM
same,inhibition at 500 µM,AChE,81.4 ± 0.8%
"C=CCn1nnc2ccc3sc(C)cc3c21 [Compound 8, 1-allyl-7-methyl-1H-thieno[3′,2′:3,4]benzo[1,2-d][1–3]triazole]",IC50,[2],> 100 µM
same,IC50,BChE,206 µM
same,inhibition at 350 µM,BChE,62.6 ± 0.2%
same,inhibition,AChE,43.5 ± 2.1%
"Cc1cc2c(ccc3nnn(Cc4ccc(F)cc4)c32)s1 [Compound 9, 1-(4-fluorobenzyl)-7-methyl-1H-thieno[3′,2′:3,4]benzo[1,2-d][1–3]triazole]",IC50,[2],> 100 µM
same,IC50,BChE,69.8 µM
same,inhibition at 350 µM,BChE,76.1 ± 0.8%
same,IC50,AChE,83 µM
same,inhibition,AChE,78.8 ± 1.9%
"COc1ccc(Cn2nnc3ccc4sc(C)cc4c32)cc1 [Compound 10, 1-(4-methoxybenzyl)-7-methyl-1H-thieno[3′,2′:3,4]benzo[1,2-d][1–3]triazole]",IC50,[2],19.2 µM
same,IC50,BChE,99.7 µM
same,inhibition at 350 µM,BChE,65.2 ± 0.3%
same,IC50,AChE,66.6 µM
same,inhibition,AChE,83.6 ± 3.7%
"Cc1cc2c(ccc3nnn(Cc4cccs4)c32)s1 [Compound 11, 7-methyl-1-(thiophen-2-ylmethyl)-1H-thieno[3′,2′:3,4]benzo[1,2-d][1–3]triazole]",IC50,[2],38.7 µM
same,IC50,BChE,123 µM
same,inhibition at 350 µM,BChE,72.3 ± 5.6%
same,IC50,AChE,218 µM
same,inhibition,AChE,71.3 ± 0.3%
"Cc1cc2c(ccc3nnn(Cc4ccco4)c32)s1 [Compound 12, 1-(furan-2-ylmethyl)-7-methyl-1H-thieno[3′,2′:3,4]benzo[1,2-d][1–3]triazole]",IC50,[2],40.6 µM
same,inhibition at 350 µM,BChE,46.1%
same,inhibition,AChE,41.8 ± 1%
"C=CCCCn1nnc2ccc3sccc3c21 [Compound 13, 1-(pent-4-en-1-yl)-1H-thieno[3′,2′:3,4]benzo[1,2-d][1–3]triazole]",IC50,[2],21.3 µM
same,IC50,BChE,40.7 µM
same,selectivity BChE over AChE,BChE; from IC50 values of Table 2,selective inhibition for BChE
same,inhibition at 250 µM,BChE,86.5 ± 5%
same,inhibition at 250 µM,AChE,46.4 ± 2.5%
OCCCCn1nnc2ccc3sccc3c21 [Compound 14],IC50,[2],38.8 µM
c1cc2c(ccc3nnn(CCCN4CCOCC4)c32)s1 [Compound 16],IC50,[2],> 100 µM
CCOC(=O)CCn1nnc2ccc3sccc3c21 [Compound 17],IC50,[2],> 100 µM
Fc1ccc(Cn2nnc3ccc4sccc4c32)cc1 [Compound 18],IC50,[2],27.7 µM
FC(F)(F)c1ccc(Cn2nnc3ccc4sccc4c32)cc1 [Compound 19],cell viability,PBMCs,10.2 **
same,cell viability,PBMCs; [3],cell viability reduction
same,IC50,[2],10.2 µM
FC(F)(F)Oc1ccc(Cn2nnc3ccc4sccc4c32)cc1 [Compound 20],cell viability,PBMCs; [3],cell viability reduction
same,IC50,[2],8.9 µM
COc1ccc(CCn2nnc3ccc4sccc4c32)cc1 [Compound 21],IC50,[2],17 µM
c1csc(Cn2nnc3ccc4sccc4c32)c1 [Compound 22],IC50,[2],16.1 µM
OCCCCn1nnc2c1-c1ccsc1CC2 [Compound 23],IC50,[2],> 100 µM
c1cc2c(s1)CCc1nnn(CCN3CCOCC3)c1-2 [Compound 24],IC50,[2],> 100 µM
c1cc2c(s1)CCc1nnn(CCCN3CCOCC3)c1-2 [Compound 25],IC50,[2],> 100 µM
FC(F)(F)c1ccc(Cn2nnc3c2-c2ccsc2CC3)cc1 [Compound 26],cell viability,PBMCs; [3],cell viability reduction
same,IC50,[2],9.4 µM
Cc1nc2c(ccc3sccc32)s1 [Compound 27],IC50,[2],12.2 µM
CC(C)c1nc2ccc3sccc3c2s1 [Compound 28],IC50,[2],> 100 µM
Clc1nc2c(ccc3sccc32)s1 [Compound 29],IC50,[2],> 100 µM
FC(F)(F)c1nc2c(ccc3sccc32)s1 [Compound 30],IC50,[2],> 100 µM
CC(=O)Nc1nc2c(ccc3sccc32)s1 [Compound 31],IC50,[2],> 100 µM
"C[C@@H]1C[C@H]2[C@@H]3CCC4=CC(=O)C=C[C@]4(C)[C@@]3(F)[C@@H](O)C[C@]2(C)[C@@]1(O)C(=O)CO [dexamethasone, reference compound]",IC50,[2],0.007 µM
